Laboratory results published in patent EP1561465A2, “Methods of use of fluoroquinolone compounds against bacteria” (LG Life Sciences, Ltd., priority 1999, dated 2001).
Values after ≈ are worked out from the molar mass of the structure shown. Read-outs that look alike come from different tables or passages of the source.

Tests used:
Format in all cases: cell-based
Enterococcus faecalis [1] = assay: MIC by NCCLS broth microdilution, 1100 Japanese clinical isolates 1997-1998; details: for MIC50 / MIC90: Enterococcus faecalis; for MIC90: read-out: MIC90
Escherichia coli [2] = assay: as above; details: for MIC50 / MIC90: Escherichia coli
Enterobacter spp. = assay: MIC by agar dilution (NCCLS), 322 nosocomial Gram negative isolates, Athens 1998; details: n = 57 isolates
Shigella spp. = assay: MIC by agar dilution (NCCLS M7-A4), 288 enteropathogenic isolates, eight quinolones; details: Shigella spp. (n = 21)
Morganella morganii = assay: MIC by NCCLS broth microdilution, 1100 Japanese clinical isolates 1997-1998; details: Morganella morganii (n=40)
[3] = system: Mycobacterium tuberculosis (MTB); assay: MIC by proportions method (NCCLS M24-T, 1995), 82 MTB strains; details: compared with the other quinolones
Escherichia coli [4] = assay: MIC by agar dilution (NCCLS), 322 nosocomial Gram negative isolates, Athens 1998; details: n = 57 isolates
Enterococcus faecalis [5] = assay: MIC by agar macrodilution (NCCLS), 373 Gram positive isolates, Athens 1998
Moraxella catarrhalis = assay: MIC by NCCLS reference broth microdilution, 450 respiratory tract pathogens
Staphylococcus aureus = assay: MIC by NCCLS broth microdilution, 1100 Japanese clinical isolates 1997-1998; details: for MIC50 / MIC90 / MIC: Staphylococcus aureus; for MIC: Staphylococcus aureus quinolone resistant
Salmonella spp. = assay: MIC by agar dilution (NCCLS M7-A4), 288 enteropathogenic isolates, gemifloxacin and 15 other antimicrobials; details: S. hadar(2), isolates with MICs for ciprofloxacin ≥[…]; read-out: MIC
[6] = Enterococcus faecalis ciprofloxacin resistant (n=15)
[7] = Enterococcus faecalis ciprofloxacin susceptible (n=24)
[8] = Escherichia coli ciprofloxacin susceptible (n=37)
[9] = Staphylococcus aureus oxacillin resistant (n=57)
[10] = Staphylococcus aureus oxacillin susceptible (n=41)

N[C@@H]1[C@H]2CN(c3nc4c(cc3F)c(=O)c(C(=O)O)cn4-c3ccc(F)cc3F)C[C@@H]12 [Trovafloxacin, trovafloxacin]
MIC Range (Enterococcus faecalis [1]; [6]): 0.25 to 16 µg/mL | MIC Range (Enterococcus faecalis [1]; [7]): 0.25 to 0.5 µg/mL | MIC50 (Enterococcus faecalis [1]; [6]): 4 µg/mL (≈ 9.61 µM) | MIC90 (Enterococcus faecalis [1]; [6]): 16 µg/mL (≈ 38.4 µM) | MIC50 (Enterococcus faecalis [1]; [7]): 0.25 µg/mL (≈ 0.6 µM) | MIC90 (Enterococcus faecalis [1]; [7]): 0.25 µg/mL (≈ 0.6 µM) | MIC Range (Escherichia coli [2]; [8]): ≤0.008 to 0.25 µg/mL | MIC50 (Escherichia coli [2]; Escherichia coli ciprofloxacin resistant (n=5)): 64 µg/mL (≈ 154 µM) | MIC90 (Escherichia coli [2]; Escherichia coli ciprofloxacin resistant (n=5), values marked *: MIC80 value): 64 µg/mL (≈ 154 µM) | MIC50 (Escherichia coli [2]; [8]): 0.016 µg/mL (≈ 0.0384 µM) | MIC90 (Escherichia coli [2]; [8]): 0.032 µg/mL (≈ 0.0769 µM) | MIC50 (Enterobacter spp.; Enterobacter, read-out: MIC50): 0.125 µg/mL (≈ 0.3 µM) | MIC90 (Enterobacter spp.; Enterobacter, read-out: MIC90): 16 µg/mL (≈ 38.4 µM) | MIC Range (Enterobacter spp.): ≤0.03 to 64 µg/mL | % Susceptible (Shigella spp.): 100% | MIC50 (Shigella spp.): ≤ 0.015 µg/mL | MIC90 (Shigella spp.): ≤ 0.015 µg/mL | MIC Range (Shigella spp.): ≤0.015 µg/mL | MIC Range (Morganella morganii): 0.063 to 32 µg/mL | MIC50 (Morganella morganii; read-out: MIC50): 0.25 µg/mL (≈ 0.6 µM) | MIC90 (Morganella morganii; read-out: MIC90): 1 µg/mL (≈ 2.4 µM) | in vitro activity against MTB [3]: lower in vitro activity | MIC50 (Escherichia coli [4]; Escherichia coli): 0.06 µg/mL (≈ 0.144 µM) | MIC90 (Escherichia coli [4]; Escherichia coli): 0.25 µg/mL (≈ 0.6 µM) | MIC Range (Escherichia coli [4]): ≤0.03 to 64 µg/mL | MIC distribution (µg/ml) 0.06 (Enterococcus faecalis [5]): 1 | MIC distribution (µg/ml) 0.125 (Enterococcus faecalis [5]): 0 | MIC distribution (µg/ml) 0.25 (Enterococcus faecalis [5]): 6 | MIC distribution (µg/ml) 0.5 (Enterococcus faecalis [5]): 21 | MIC distribution (µg/ml) 1 (Enterococcus faecalis [5]): 23 | MIC distribution (µg/ml) 2 (Enterococcus faecalis [5]): 6 | MIC distribution (µg/ml) 4 (Enterococcus faecalis [5]): 0 | MIC distribution (µg/ml) 8 (Enterococcus faecalis [5]): 3 | MIC distribution (µg/ml) 16 (Enterococcus faecalis [5]): 3 | MIC distribution (µg/ml) ≤0.015 (Enterococcus faecalis [5]): 0 | MIC distribution (µg/ml) ≥32 (Enterococcus faecalis [5]): 17 | MIC50 (Enterococcus faecalis [5]; Enterococcus faecalis, n = 81 isolates, read-out: MIC50): 1 µg/mL (≈ 2.4 µM) | MIC90 (Enterococcus faecalis [5]; Enterococcus faecalis, n = 81 isolates, read-out: MIC90): ≥ 32 µg/mL | MIC (Moraxella catarrhalis; Moraxella catarrhalis (n = 50)): 0.00375 to 0.06 µg/mL (≈ 0.00901 to 0.144 µM) | MIC50 (Moraxella catarrhalis; Moraxella catarrhalis (n = 50)): 0.015 µg/mL (≈ 0.036 µM) | MIC90 (Moraxella catarrhalis; Moraxella catarrhalis (n = 50)): 0.06 µg/mL (≈ 0.144 µM) | MIC (Moraxella catarrhalis; β-lactamase negative (n = 13)): 0.00375 to 0.06 µg/mL (≈ 0.00901 to 0.144 µM) | MIC50 (Moraxella catarrhalis; β-lactamase negative (n = 13)): 0.0075 µg/mL (≈ 0.018 µM) | MIC90 (Moraxella catarrhalis; β-lactamase negative (n = 13)): 0.036 µg/mL (≈ 0.0865 µM) | MIC (Moraxella catarrhalis; β-lactamase positive (n = 37)): 0.00375 to 0.06 µg/mL (≈ 0.00901 to 0.144 µM) | MIC50 (Moraxella catarrhalis; β-lactamase positive (n = 37)): 0.015 µg/mL (≈ 0.036 µM) | MIC90 (Moraxella catarrhalis; β-lactamase positive (n = 37)): 0.03 µg/mL (≈ 0.0721 µM) | MIC Range (Staphylococcus aureus; [9]): 0.016 to 32 µg/mL | MIC Range (Staphylococcus aureus; [10]): ≤0.008 to 0.5 µg/mL | MIC50 (Staphylococcus aureus; [9]): 1 µg/mL (≈ 2.4 µM) | MIC90 (Staphylococcus aureus; [9]): 8 µg/mL (≈ 19.2 µM) | MIC50 (Staphylococcus aureus; [10]): 0.032 µg/mL (≈ 0.0769 µM) | MIC90 (Staphylococcus aureus; [10]): 0.063 µg/mL (≈ 0.151 µM) | MIC (Staphylococcus aureus; strain TMS1* (spontaneous mutant resistant to ciprofloxacin)): 0.125 µg/mL (≈ 0.3 µM) | MIC (Staphylococcus aureus; strain TMS3, read-out: MIC): 128 µg/mL (≈ 307 µM) | MIC (Staphylococcus aureus; strain TMS4, read-out: MIC): 0.5 µg/mL (≈ 1.2 µM) | MIC (Staphylococcus aureus; strain TMS5, read-out: MIC): 1 µg/mL (≈ 2.4 µM) | MIC (Staphylococcus aureus; strain TMS6, read-out: MIC): 0.5 µg/mL (≈ 1.2 µM) | MIC (Salmonella spp.): 0.5 µg/mL (≈ 1.2 µM)
